In patent publication US20230117155A1, “FRACTION EXTRACT OF MELISSA OFFICINALIS LEAVES AND NOVEL PHARMACEUTICAL COMPOSITION INCLUDING SAME” (priority 2020, published 2023):
“Also recorded” adds a separate entry of the source.

Tested on: HUVECs (human umbilical vein endothelial cells)
Assay: HUVEC tube formation, angiogenesis inhibitory activity assay
Assay type: cell-based
Conditions: single ingredient, final concentration 50 μg/ml; FIG. 9
Procedure: A 48-well plate was coated with 200 μl of 10% matrigel, and incubated at 4° C. After 4 hours the temperature was raised to 37° C., and 1 hour later, the test substances listed in Tables 2 and 3 below were added to a final concentration of 50 μg/ml, and then 5×10^4 HUVECs (human umbilical vein endothelial cells) were added to each well, and pictures were taken the next day.

SMILES	angiogenesis inhibitory activity in HUVEC tube formation assay
CCOC(=O)Cc1ccc(O)c(O)c1 [EDPA, Ethyl 2-(3,4-dihydroxyphenyl) acetate]	angiogenesis inhibitory activities; also recorded: highest angiogenesis inhibitory activity
O=C(/C=C/c1ccc(O)c(O)c1)O[C@H](Cc1ccc(O)c(O)c1)C(=O)O [Rosmarinic acid]	angiogenesis inhibitory activities
O=C(O)/C=C/c1ccc(O)c(O)c1 [caffeic acid]	angiogenesis inhibitory activities
COC(=O)[C@@H](Cc1ccc(O)c(O)c1)OC(=O)/C=C/c1ccc(O)c(O)c1 [RME, Rosmarinic acid methyl ester]	angiogenesis inhibitory activities
